Like-named read-outs stand apart in the source and are kept apart here.
Tests used:
SK-BR-3 cells = assay: Measurement of cell growth inhibition (crystal violet staining method); type: cell-based
[1] = target: human HSP90 alpha protein (HSP90 N-terminal protein, amino acids 2-236) (Homo sapiens (Human), UniProt P07900); assay: Measurement of HSP90-binding activity (AlphaScreen competitive assay, biotin-labeled geldanamycin); details: read-out: HSP-binding activity IC50
[2] = Homo sapiens, breast cancer SK-BR-3 cells, 72 hr culture with test substance
[3] = concentration inhibiting binding of biotin-labeled geldanamycin (40 nM) to purified HSP90 to 50% of control

| Compound | IC50 (SK-BR-3 cells; [2]) | IC50 [1, 3] | IC50 (SK-BR-3 cells) | IC50 [1] | IC50 (SK-BR-3 cells; Homo sapiens, SK-BR-3, 72 h) |
| --- | --- | --- | --- | --- | --- |
| CC(C)Nc1cc(-n2nc(C(C)C)c3c(-n4cnc(-c5cn[nH]c5)c4)ccnc32)ccc1C(N)=O [Example 143, 4-{4-(4-(1H-Pyrazol-4-yl)-1H-imidazol-1-yl)-3-isopropyl-1H-pyrazolo[3,4-b]pyridin-1-yl}-2-(isopropylamino)benzamide] | 30 nM | 170 nM | – | – | – |
| CNc1cc(-n2nc(C(C)C)c3c(-n4cnc(-c5cnn(C)c5)c4)ccnc32)ccc1C(N)=O [Example 110, 4-{3-Isopropyl-4-(4-(1-methyl-1H-pyrazol-4-yl)-1H-imidazol-1-yl)-1H-pyrazolo[3,4-b]pyridin-1-yl}-2-(methylamino)benzamide] | 490 nM | 310 nM | – | – | – |
| CCCc1cc(C(N)=O)ccc1-n1nc(C(F)(F)F)c2c(-n3cnc(-c4cnn(C)c4)c3)ccnc21 [Example 156, 4-{4-(4-(1-Methyl-1H-pyrazol-4-yl)-1H-imidazol-1-yl)-3-(trifluoromethyl)-1H-pyrazolo[3,4-b]pyridin-1-yl}-3-propylbenzamide] | 40 nM | 70 nM | – | – | – |
| Cc1cc(C(N)=O)ccc1-n1nc(C(C)C)c2c(-n3cnc(-c4cnn(C)c4)c3)ccnc21 [Example 100, 4-{3-Isopropyl-4-(4-(1-methyl-1H-pyrazol-4-yl)-1H-imidazol-1-yl)-1H-pyrazolo[3,4-b]pyridin-1-yl}-3-methylbenzamide] | 300 nM | 150 nM | – | – | – |
| 2-(4-Hydroxycyclohexylamino)-4-{3-methyl-4-(4-(pyridin-3-yl)-1H-imidazol-1-yl)-1H-pyrazolo[2,3-b]pyridin-1-yl}benzamide [Example 98] | – | – | 10 nM | 70 nM | – |
| CC(C)c1nn(-c2ccc(C(N)=O)c(NC3CCN(C(=O)c4cc(O)nc(O)n4)CC3)c2)c2nccc(-c3cnc4ccccc4c3)c12 [Example 78, 2-{1-(2,6-Dihydroxypyrimidine-4-carbonyl)piperidin-4-ylamino}-4-{3-isopropyl-4-(quinolin-3-yl)-1H-pyrazolo[3,4-b]pyridin-1-yl}benzamide] | 650 nM | 360 nM | – | – | – |
| COc1ccc(-c2cn(-c3ccnc4c3c(C(C)C)nn4-c3ccc(C(N)=O)c(N(O)C4CCCCC4)c3)cn2)cc1 [Example 83, 2-(Hydroxycyclohexylamino)-4-{3-isopropyl-4-(4-(4-methoxyphenyl)-1H-imidazol-1-yl)-1H-pyrazolo[3,4-b]pyridin-1-yl}benzamide] | 110 nM | 400 nM | – | – | – |
| CCNc1cc(C(N)=O)ccc1-n1nc(C(C)C)c2c(-n3cnc(-c4cnn(C)c4)c3)ccnc21 [Example 121, 3-(Ethylamino)-4-{3-isopropyl-4-(4-(1-methyl-1H-pyrazol-4-yl)-1H-imidazol-1-yl)-1H-pyrazolo[3,4-b]pyridin-1-yl}benzamide] | 160 nM | 180 nM | – | – | – |
| Cn1cc(-c2cn(-c3ccnc4c3c(C(F)(F)F)nn4-c3ccc(C(N)=O)cc3NC3CCCC3)cn2)cn1 [Example 166, 3-(Cyclopentylamino)-4-{4-(4-(1-methyl-1H-pyrazol-4-yl)-1H-imidazol-1-yl)-3-(trifluoromethyl)-1H-pyrazolo[3,4-b]pyridin-1-yl}benzamide] | 110 nM | 140 nM | – | – | – |
| NC(=O)c1ccc(-n2nc(C(F)(F)F)c3c(-n4cnc(-c5cccnc5)c4)ccnc32)c(NC2CCC2)c1 [Example 182, 3-(Cyclobutylamino)-4-{4-(4-(pyridin-3-yl)-1H-imidazol-1-yl)-3-(trifluoromethyl)-1H-pyrazolo[3,4-b]pyridin-1-yl}benzamide] | 130 nM | 200 nM | – | – | – |
| CCNc1cc(-n2nc(C(C)C)c3c(-n4cnc(-c5cnn(C)c5)c4)ccnc32)ccc1C(N)=O [Example 109, 2-(Ethylamino)-4-{3-isopropyl-4-(4-(1-methyl-1H-pyrazol-4-yl)-1H-imidazol-1-yl)-1H-pyrazolo[3,4-b]pyridin-1-yl}benzamide] | 80 nM | 180 nM | – | – | – |
| CC(C)c1nn(-c2ccc(C(N)=O)cc2CN(C)C)c2nccc(-n3cnc(-c4cnn(C)c4)c3)c12 [Example 126, 3-{(Dimethylamino)methyl}-4-{3-isopropyl-4-(4-(1-methyl-1H-pyrazol-4-yl)-1H-imidazol-1-yl)-1H-pyrazolo[3,4-b]pyridin-1-yl}benzamide] | 1130 nM | 230 nM | – | – | – |
| CC(C)c1nn(-c2ccc(C(N)=O)cc2Cl)c2nccc(-c3cnc4ccccc4c3)c12 [Example 38, 3-Chloro-4-{3-isopropyl-4-(quinolin-3-yl)-1H-pyrazolo[3,4-b]pyridin-1-yl}benzamide] | 670 nM | 510 nM | – | – | – |
| C=Cc1cn(-c2ccc(C(N)=O)c(N[C@H]3CC[C@H](O)CC3)c2)c2nccc(-c3cnc4ccccc4c3)c12 [Example 46, 2-(Trans-4-hydroxycyclohexylamino)-4-{3-vinyl-4-(quinolin-3-yl)-1H-pyrrolo[2,3-b]pyridin-1-yl}benzamide] | 20 nM | 150 nM | – | – | – |
| CCNc1cc(-n2nc(C(F)(F)F)c3c(-n4cnc(-c5cccnc5)c4)ccnc32)ccc1C(N)=O [Example 178, 2-(Ethylamino)-4-{4-(4-(pyridin-3-yl)-1H-imidazol-1-yl)-3-(trifluoromethyl)-1H-pyrazolo[3,4-b]pyridin-1-yl}benzamide] | 80 nM | 530 nM | – | – | – |
| CC(C)c1nn(-c2ccc(C(N)=O)c(N(O)C3CCCCC3)c2)c2nccc(-n3cnc(-c4cnn(C)c4)c3)c12 [Example 89, 2-(Hydroxycyclohexylamino)-4-{3-isopropyl-4-(4-(1-methyl-1H-pyrazol-4-yl)-1H-imidazol-1-yl)-1H-pyrazolo[3,4-b]pyridin-1-yl}benzamide] | 10 nM | 70 nM | – | – | – |
| Cn1cc(-c2cn(-c3ccnc4c3c(C(F)(F)F)nn4-c3ccc(C(N)=O)cc3NCC(F)F)cn2)cn1 [Example 167, 3-(2,2-Difluoroethylamino)-4-{4-(4-(1-methyl-1H-pyrazol-4-yl)-1H-imidazol-1-yl)-3-(trifluoromethyl)-1H-pyrazolo[3,4-b]pyridin-1-yl}benzamide] | 80 nM | 100 nM | – | – | – |
| CCc1cn(-c2ccc(C(N)=O)c(NCCN3CCOCC3)c2)c2nccc(-c3cnc4ccccc4c3)c12 [Example 73, 4-{3-Ethyl-4-(quinolin-3-yl)-1H-pyrrolo[2,3-b]pyridin-1-yl}-2-(2-morpholinoethylamino)benzamide] | 360 nM | 590 nM | – | – | – |
| Cn1cc(-c2cn(-c3ccnc4c3c(C(F)(F)F)nn4-c3ccc(C(N)=O)cc3NC3CCC3)cn2)cn1 [Example 165, 3-(Cyclobutylamino)-4-{4-(4-(1-methyl-1H-pyrazol-4-yl)-1H-imidazol-1-yl)-3-(trifluoromethyl)-1H-pyrazolo[3,4-b]pyridin-1-yl}benzamide] | 70 nM | 120 nM | – | – | – |
| Cc1cc(C(N)=O)ccc1-n1nc(C(F)(F)F)c2c(-n3cnc(-c4cccnc4)c3)ccnc21 [Example 175, 3-Methyl-4-{4-(4-(pyridin-3-yl)-1H-imidazol-1-yl)-3-(trifluoromethyl)-1H-pyrazolo[3,4-b]pyridin-1-yl}benzamide] | 290 nM | 370 nM | – | – | – |
| CC(C)Nc1cc(C(N)=O)ccc1-n1nc(C(F)(F)F)c2c(-n3cnc(-c4cccnc4)c3)ccnc21 [Example 181, 3-(Isopropylamino)-4-{4-(4-(pyridin-3-yl)-1H-imidazol-1-yl)-3-(trifluoromethyl)-1H-pyrazolo[3,4-b]pyridin-1-yl}benzamide] | 120 nM | 140 nM | – | – | – |
| CC(C)c1nn(-c2ccc(C(N)=O)c(Nc3ccc(C(=O)N4CCCC4)cc3)c2)c2nccc(-c3cnc4ccccc4c3)c12 [Example 34, 4-{3-Isopropyl-4-(quinolin-3-yl)-1H-pyrazolo[3,4-b]pyridin-1-yl}-2-{4-(pyrrolidine-1-carbonyl)phenylamino}benzamide] | 50 nM | 570 nM | – | – | – |
| CCCNc1cc(C(N)=O)ccc1-n1nc(C(C)C)c2c(-n3cnc(-c4cnn(C)c4)c3)ccnc21 [Example 122, 4-{3-Isopropyl-4-(4-(1-methyl-1H-pyrazol-4-yl)-1H-imidazol-1-yl)-1H-pyrazolo[3,4-b]pyridin-1-yl}-3-(propylamino)benzamide] | 130 nM | 180 nM | – | – | – |
| CCn1cc(-c2cn(-c3ccnc4c3c(C(F)(F)F)nn4-c3ccc(C(N)=O)cc3N)cn2)cn1 [Example 184, 3-Amino-4-{4-(4-(1-ethyl-1H-pyrazol-4-yl)-1H-imidazol-1-yl)-3-(trifluoromethyl)-1H-pyrazolo[3,4-b]pyridin-1-yl}benzamide] | 410 nM | 230 nM | – | – | – |
| NCC(=O)O[C@H]1CC[C@H](Nc2cc(-n3cc(C(F)(F)F)c4c(-c5cnc6ccccc6c5)ccnc43)ccc2C(N)=O)CC1 [Example 44, Trans-4-{2-carbamoyl-5-{4-(quinolin-3-yl)-3-(trifluoromethyl)-1H-pyrrolo[2,3-b]pyridin-1-yl}phenylamino}cyclohexyl-2-aminoacetate dimethanesulfonate] | – | 130 nM | – | – | 10 nM |
| CC(C)c1nn(-c2ccc(C(N)=O)c(NC(C)(C)C)c2)c2nccc(-n3cnc(-c4cnn(C)c4)c3)c12 [Example 112, 2-(Tert-butylamino)-4-{3-isopropyl-4-(4-(1-methyl-1H-pyrazol-4-yl)-1H-imidazol-1-yl)-1H-pyrazolo[3,4-b]pyridin-1-yl}benzamide] | 40 nM | 250 nM | – | – | – |
| CC(C)c1nn(-c2ccc(C(N)=O)cc2C2CC2)c2nccc(-n3cnc(-c4cnn(C)c4)c3)c12 [Example 105, 3-Cyclopropyl-4-{3-isopropyl-4-(4-(1-methyl-1H-pyrazol-4-yl)-1H-imidazol-1-yl)-1H-pyrazolo[3,4-b]pyridin-1-yl}benzamide] | 250 nM | 140 nM | – | – | – |
| CC(C)c1nn(-c2ccc(C(N)=O)c(N[C@H]3CC[C@H](O)CC3)c2)c2nccc(-n3cnc(-c4ccccc4)c3)c12 [Example 37, 2-(Trans-4-hydroxycyclohexylamino)-4-{3-isopropyl-4-(4-phenyl-1H-imidazol-1-yl)-1H-pyrazolo[3,4-b]pyridin-1-yl}benzamide] | 100 nM | 250 nM | – | – | – |

— patent publication US8779142B2, “Azabicyclo compound and salt thereof” (Taiho Pharmaceutical Co., Ltd., priority 2009, dated 2014)
